Measured values taken from US20250127905A1, “GLUTARIMIDE COMPOUND AND USE THEREOF” (MEDSHINE DISCOVERY INC., priority 2021, published 2025).

Legend:
[1] = system: interleukin 17, interleukin 6, and tumor necrosis factor α; assay: Imiquimod-induced psoriasis model in mice: relative levels of skin inflammatory factors (fluorescence quantitative PCR); type: in vivo, BALB/c mice; conditions: lesion skin D7, Mean±SEM
Experimental: (§1) Experimental grouping and administration: After acclimatization, […] male BALB/c mice were randomly divided into 5 groups (n=6 or 9) according to body weight: normal (control, G1) group, vehicle (model, G2) group, test compound low-dose (30 mg/kg, BID, G3) group, test compound medium-dose (100 mg/kg, BID, G4) group, and test compound high-dose (300 mg/kg, BID, G5) group.
(§2) Model induction: the dorsal skin of the experimental animals was shaved (surface area=2×3 cm) before the application of imiquimod. In addition to the normal group, imiquimod cream was topically applied to the shaved back (47 mg) and left ear (15 mg) at 62 mg/mouse per day for 8 consecutive days (from D0 to D7). For administration groups (G2 to G5), the vehicle or test compound was intragastrically administered twice a day from D-1 to D6 and only once on D7. The administration volume was 10 mL/kg in each group. (Note: It is specified that the first application of imiquimod is D0; since it is administered one day earlier, the first administration is D-1).
Inflammatory factors: The skin was taken from the lesion site after the animals were sacrificed on D7, and the relative levels of interleukin 17, interleukin 6, and tumor necrosis factor α were detected using fluorescence quantitative PCR.
(§3) Experimental data were expressed as Mean±SEM; data were statistically analyzed using one-way ANOVA in GraphPad Prism software, and p<0.05 was considered a significant difference between the two groups.

[2] = system: imiquimod-induced psoriasis model; assay: Imiquimod-induced psoriasis model in mice: pathological score, ear thickness, spleen weight; type: in vivo, BALB/c mice; conditions: Mean±SEM; for Spleen weight: D7; for Increased ear thickness: D7 relative to D0
Experimental: It is to evaluate the efficacy of compounds on imiquimod-induced psoriasis model in BALB/c mice.
Animals: BALB/c mice, male, 18 to 20 g; source: Zhejiang Vital River Laboratory Animal Technology Co., Ltd.
as §1, §2
Clinical score: Clinical disease scores for erythema, scale, and thickness were measured daily according to a grading system, and cumulative scores were calculated.
Ear thickness: The left ear thickness was measured on D0, D3, D5, and D7 for a total of 4 times, and the increased ear thickness on D7 relative to D0 was calculated.
Spleen weight: The spleen weight was measured after the animals were sacrificed on D7.
as §3

With `O=C1CCC(c2noc3c(NC(=O)CN4CCN(C[C@H]5CC[C@H](n6cc(NC(=O)c7cnn8ccc(N9C[C@H]%10C[C@@H]9CO%10)nc78)c(C(F)F)n6)CC5)CC4)cccc23)C(=O)N1` (stereo partly drawn) [WX015] as the molecule, how does the “Interleukin 6 relative level” value ([1]; 30 mg/kg BID) read?
The value was 8.0 ± 3.3.

What about the “Interleukin 17 relative level” value ([1]; 30 mg/kg BID) of the same molecule?
The value was 102.4 ± 36.9.

And the “Tumor necrosis factor α relative level” value ([1]; 30 mg/kg BID)?
The value was 5.2 ± 0.7.

What about the “Interleukin 6 relative level” value ([1]; 100 mg/kg BID) of the same molecule?
The value was 13.8 ± 2.3.

What about the “Interleukin 17 relative level” value ([1]; 100 mg/kg BID) of the same molecule?
Its value is 113.1 ± 49.4.

What about the “Tumor necrosis factor α relative level” value ([1]; 100 mg/kg BID) of the same molecule?
Its value is 5.2 ± 0.8.

What about the “Interleukin 6 relative level” value ([1]; 300 mg/kg BID) of the same molecule?
The value was 4.7 ± 2.0.

What about the “Interleukin 17 relative level” value ([1]; 300 mg/kg BID) of the same molecule?
Its value is 97.3 ± 35.3.

What about the “Tumor necrosis factor α relative level” value ([1]; 300 mg/kg BID) of the same molecule?
Its value is 3.7 ± 0.6.

What about the Spleen weight ([2]; 30 mg/kg BID intragastric) of the same molecule?
Its Spleen weight is 175.78 ± 13.01 mg.

And the Increased ear thickness ([2]; 30 mg/kg BID intragastric)?
The Increased ear thickness was 208 ± 6 µm.

And the Pathological score ([2]; 30 mg/kg BID intragastric)?
Its Pathological score is 20.2 ± 0.89.

And the Spleen weight ([2]; 100 mg/kg BID intragastric)?
Its Spleen weight is 153.78 ± 11.67 mg.

What about the Increased ear thickness ([2]; 100 mg/kg BID intragastric) of the same molecule?
The Increased ear thickness was 217 ± 5.67 µm.

And the Pathological score ([2]; 100 mg/kg BID intragastric)?
Its Pathological score is 20.5 ± 1.18.

And the Spleen weight ([2]; 300 mg/kg BID intragastric)?
Its Spleen weight is 132.78 ± 3.94 mg.

And the Increased ear thickness ([2]; 300 mg/kg BID intragastric)?
Its Increased ear thickness is 185 ± 2.68 µm.

What about the Pathological score ([2]; 300 mg/kg BID intragastric) of the same molecule?
Its Pathological score is 19.0 ± 0.55.
